Measurements reported in patent US20260325617A1, “INKT Cell Modulator Liposomal Compositions and Methods of Use” (priority 2023, published 2026).
Values joined by “and” are separate entries in the source; they are usually repeats but may differ in a detail not shown here. Equal entries are not always repeated. Where two headings read alike, the source gives them in different places.

Assays:
[1] = Mouse pharmacokinetics of IMM60 after i.v. liposomal or soluble IMM60 (Example 7); format: in vivo, mouse (C57BL/6 and CD1)
Method: The two strains of mice that were compared were CD1 mice (not to be confused with CD1d-KO mice) and C57BL/mice. The half-life, volume of distribution, clearance, AUC, and Cmax were calculated using the one-compartmental model with first-order kinetics.
Lipid formulation: DSPG:DSPC:IMM60 (3.44:4.37:1 mg/ml) in a 250 mM sucrose, 145 mM NaCl, 10 mM sodium phosphate, pH 6.5 buffer. Before use, Vials of liposomal IMM60 were thawed at room temperature (21° C.-22° C.), then heated to 55° C. for 10 minutes using a heated water bath. Vials were mixed by inversion six times, cooled to room temperature, and diluted to either 100 ng/ml or 10,000 ng/ml using injection grade saline (0.9% NaCl).
Soluble IMM60: Lyophilized material was resuspended in Chloroform:methanol:water (10:10:3) to 10 mg/ml (vials of 100 μg in 10 μl) swirled around to capture all the material and then Vehicle solution (150 mM NaCl, 0.5% Tween20 in distilled water) added quickly to a final concentration of 100 μg/ml (for 100 μg in 10 μl, added 990 μl of Vehicle), then then heated to 80-90° C. for 5 minutes, and sonicated with a waterbath sonicator for 5 minutes. Samples were diluted to 10,000 ng/ml using injection grade saline.
Mice were warmed up for 20-30 minutes in cages place in a 37° C. heating chamber. Mice within each group were injected intravenously, using 27G insulin syringe needles, with 100 μl (C57BL/mice) or 150 μl (CD-1 mice) of the recorded dose over approximately 4 seconds.
Plasma samples were analyzed by LC/MS/MS at Frontage Laboratories. […] The method uses alpha GalCer (analog to IMM60) as an internal standard and the mass spectroctoscopic ionization is electrospray in the positive ionization mode. The range of calibration standards is between 1 ng/mL to 1000 ng/mL IMM60 in mouse plasma.
Plasma concentrations were measured 10 and 180 minutes after IV administration. The half-life, clearance, and AUC(0-∞) were calculated using the one-compartmental model with first-order kinetics since only two time points were samples along the PK profile. Using these assumptions allow for the calculation of PK parameters. Other assumption is that the T10 minutes is substituted for T0 and C10 minutes is substituted for C0 and Cmax to solve for PK parameters of liposomal IMM60.
Statistical Calculations: the mean, standard deviation (SD), standard error of the mean (SE), p-value from the t-test (equal or unequal variances) was calculated using Microsoft Excel 201 (Microsoft Corporation). Equal or unequal variances were chosen based on use of the F-test function. All t-test comparisons were performed with the 1000 ng IMM60 in liposome form as the control. Half-life T(1/2) in Mouse of IMM60: The half-life for mice of IMM60 is calculated using Equation 1 using the one-compartment model with 1st order kinetics.

[2] = test system: iNKT cells / immune cells; test: PD-1 / PD-L1 upregulation on immune cells by soluble IMM60
[3] = individual mouse, C57BL/6, 1000 ng i.v., listed as IMM60 soluble
[4] = individual mouse, CD1, 1500 ng i.v., listed as IMM60 soluble

CCCCCCCCCCCCCCCCCCCCCCCCCC(=O)N[C@@H](CO[C@H]1CC[C@H](O)[C@H](O)[C@H]1O)[C@H](O)[C@H](O)CCCCCCCCCCCCCC [soluble IMM60]
Cmax ([1]; individual mouse, C57BL/6, 1000 ng i.v., 10 min, listed as IMM60 soluble): 87.7 ng/mL | AUC(0-∞) [1, 3]: 12,418 ng/ml/min | Vd [1, 3]: 0.0114 L | half-life [1, 3]: 1.636 h | Cmax ([1]; individual mouse, CD1, 1500 ng i.v., 10 min, listed as IMM60 soluble): 105.0 ng/mL | AUC(0-∞) [1, 4]: 17,976 ng/ml/min | Vd [1, 4]: 0.01429 L | half-life [1, 4]: 1.9773 h | Half-life and volume of distribution vs liposomal ([1]; mice): longer half-life and larger volume of distribution | AUC(0-inf) ([1]; mouse, plasma, iv, 0.001 mg, average, C57BL/6, 1000 ng i.v.): 204 ng·h/mL | Cmax at 10 min ([1]; mouse, plasma, iv, 0.001 mg, average, C57BL/6, 1000 ng i.v., 10 min): 89.7 ng/mL | clearance ([1]; mouse, plasma, iv, 0.001 mg, average, C57BL/6, 1000 ng i.v., read-out: Clearance): 0.08 mL/min | half-life ([1]; mouse, plasma, iv, 0.001 mg, average, C57BL/6, 1000 ng i.v., read-out: Half-life): 1.58 h | Vd ([1]; mouse, plasma, iv, 0.001 mg, average, C57BL/6, 1000 ng i.v., read-out: Vd): 0.0112 L | AUC(0-inf) ([1]; mouse, plasma, iv, 0.001 mg, individual mouse, C57BL/6, 1000 ng i.v.): 201 ng·h/mL | Cmax at 10 min ([1]; mouse, plasma, iv, 0.001 mg, individual mouse, C57BL/6, 1000 ng i.v., 10 min): 91.7 ng/mL | clearance ([1]; mouse, plasma, iv, 0.001 mg, individual mouse, C57BL/6, 1000 ng i.v., read-out: Clearance): 0.08 mL/min | half-life ([1]; mouse, plasma, iv, 0.001 mg, individual mouse, C57BL/6, 1000 ng i.v., read-out: Half-life): 1.52 h | Vd ([1]; mouse, plasma, iv, 0.001 mg, individual mouse, C57BL/6, 1000 ng i.v., read-out: Vd): 0.0109 L | AUC(0-inf) ([1]; mouse, plasma, iv, 0.0015 mg, average, CD1, 1500 ng i.v.): 269 ng·h/mL | Cmax at 10 min ([1]; mouse, plasma, iv, 0.0015 mg, average, CD1, 1500 ng i.v., 10 min): 83.7 ng/mL | clearance ([1]; mouse, plasma, iv, 0.0015 mg, average, CD1, 1500 ng i.v., read-out: Clearance): 0.09 mL/min | half-life ([1]; mouse, plasma, iv, 0.0015 mg, average, CD1, 1500 ng i.v., read-out: Half-life): 2.32 h | Vd ([1]; mouse, plasma, iv, 0.0015 mg, average, CD1, 1500 ng i.v., read-out: Vd): 0.0192 L | AUC(0-inf) ([1]; mouse, plasma, iv, 0.0015 mg, individual mouse, CD1, 1500 ng i.v.): 239 ng·h/mL | Cmax at 10 min ([1]; mouse, plasma, iv, 0.0015 mg, individual mouse, CD1, 1500 ng i.v., 10 min): 62.4 ng/mL | clearance ([1]; mouse, plasma, iv, 0.0015 mg, individual mouse, CD1, 1500 ng i.v., read-out: Clearance): 0.1 mL/min | half-life ([1]; mouse, plasma, iv, 0.0015 mg, individual mouse, CD1, 1500 ng i.v., read-out: Half-life): 2.66 h | Vd ([1]; mouse, plasma, iv, 0.0015 mg, individual mouse, CD1, 1500 ng i.v., read-out: Vd): 0.024 L | AUC(0-inf) ([1]; mouse, plasma, iv, 0.05 mg/kg, C57BL and CD1 strains, high dose): 204 to 269 ng·h/mL | clearance ([1]; mouse, plasma, iv, 0.05 mg/kg, C57BL and CD1 strains, high dose, read-out: Clearance): 3.1 to 4.1 mL/min/kg | Cmax ([1]; mouse, plasma, iv, 0.05 mg/kg, C57BL and CD1 strains, high dose, read-out: Cmax): 84 to 90 ng/mL | half-life ([1]; mouse, plasma, iv, 0.05 mg/kg, C57BL and CD1 strains, high dose, read-out: Half life T1/2): 1.58 to 2.32 h | Vd ([1]; mouse, plasma, iv, 0.05 mg/kg, C57BL and CD1 strains, high dose, read-out: Volume of distribution Vd): 0.558 to 0.639 L/kg | AUC(0-inf) ([1]; mouse, plasma, iv, 0.05 mg/kg, mean ± SE, 1000 ng (50 μg/kg) i.v.): 204 ng·h/mL | clearance ([1]; mouse, plasma, iv, 0.05 mg/kg, mean ± SE, 1000 ng (50 μg/kg) i.v., read-out: Cl): 0.08 mL/min and 4.09 mL/min/kg | Cmax ([1]; mouse, plasma, iv, 0.05 mg/kg, mean ± SE, 1000 ng (50 μg/kg) i.v., read-out: Cmax): 90 ± 2 ng/mL | Vd ([1]; mouse, plasma, iv, 0.05 mg/kg, mean ± SE, 1000 ng (50 μg/kg) i.v., read-out: Vd): 0.558 ± 0.012 L/kg | half-life ([1]; mouse, plasma, iv, 0.05 mg/kg, mean ± SE, 1000 ng (50 μg/kg) i.v., read-out: t1/2): 1.57 ± 0.06 h | AUC(0-inf) ([1]; mouse, plasma, iv, 0.05 mg/kg, mean ± SE, 1500 ng (50 μg/kg) i.v.): 269 ng·h/mL | clearance ([1]; mouse, plasma, iv, 0.05 mg/kg, mean ± SE, 1500 ng (50 μg/kg) i.v., read-out: Cl): 0.09 mL/min and 3.13 mL/min/kg | Cmax ([1]; mouse, plasma, iv, 0.05 mg/kg, mean ± SE, 1500 ng (50 μg/kg) i.v., read-out: Cmax): 84 ± 21 ng/mL | Vd ([1]; mouse, plasma, iv, 0.05 mg/kg, mean ± SE, 1500 ng (50 μg/kg) i.v., read-out: Vd): 0.639 ± 0.163 L/kg | half-life ([1]; mouse, plasma, iv, 0.05 mg/kg, mean ± SE, 1500 ng (50 μg/kg) i.v., read-out: t1/2): 2.32 ± 0.34 h | PD-1 on iNKT cells [2]: upregulate the levels of PD-1 on iNKT cells | PD-L1 on a variety of immune cells [2]: upregulates expression of PD-L1
